These results are taken from patent US20090055945A1, “Method for Producing Nuclear-Transplanted Egg” (priority 2005, published 2009).

Experiment [1] has as its system oocytes injected with nuclear domains of round spermatids (ROSI). The experiment can be described thus: Paternal genome DNA methylation, spermatid injection (ROSI). Format: cell-based, mouse. The following applies: 500 nM TSA. As for the experimental part: The oocytes injected with the nuclear domains of round spermatids obtained by ROSI were cultured for 20 hours in the presence of 20 ng/ml of demecolcine in a medium containing 10 μM 5-azacytidine (5-aza) or 500 nM TSA as an anti-methylation agent. Similarly, injection of mature sperms was carried out (ICSI (intracytoplasmic sperm injection)). Specifically, heads of sperms were separated from the tails by applying pulses to the head-tail junctions by means of a piezo-driven pipette (PrimeTech), and injected into oocytes. The oocytes were not subjected to activation in this case.
The cultured oocytes injected with nuclei were fixed in PBS containing 4% paraformaldehyde at 4° C. overnight, washed in PBS containing 0.1% polyvinyl alcohol (PVA), and blocked in PBS containing 3% bovine serum albumin (BSA) and 0.2% Triton X-100 at 4° C. overnight. Subsequent steps were carried out at room temperature. The fixed oocytes injected with nuclei were permeabilized by treating with 0.2% Triton X-100 in PBS at room temperature. The oocytes were then treated with 2N HCl at room temperature for 50 minutes, neutralized in 100 mM Tris-HCl buffer (pH 8.0) (Non-patent Document 15), and extensively washed with PBS containing 1% BSA.
Next, incubation. with an anti-5-methylcytidine antibody (Eurogentec) in PBS containing 0.1% PVA was carried out for 2 to 3 hours. After extensively being washed, oocytes were stained with Alexa Flour-488 secondary antibody (Molecular Probes), stained with 5 μg/ml 4′,6′-diamidino-2-phenylindole (DAPI) for 30 minutes, and mounted using Vectashield (Vector Laboratory). The specimens were observed using Olympus BX51 microscope (Olympus). All images were captured with DP70 Olympus digital camera using Olympus Analysis software to apply colors to DAPI-stained DNA and merged images.
For quantitative analysis of pronuclear DNA methylation levels, fluorescence images were subjected to densitometric analysis using the program Image-J from the National Institute of Health (http://rsb.info.nih.gov/ij/). For each pronucleus, the relative intensity of methylation of the paternal genome was calculated as a percentage of the fluorescence intensity of the maternal genome. In Table 3, data with (b) and without (a) anti-methylation agent were statistically analyzed by Scheffe tests for multiple mean comparisons using the statistical program SPSS version 12.0 (SPSS Inc.). All percentile data were subjected to arcsine transformation prior to the statistical analysis.

Experiment [2] has as its system oocytes into which nuclei from fibroblasts were transferred. The experiment can be described thus: Expanded blastocyst formation, fibroblasts as donor cells. The experiment is classed as cell-based, mouse. As to conditions: fibroblast donor nuclei; 50 nM TSA for 20 hours; FIG. 8. As for the experimental part: A procedure similar to that described in Example 1 was carried out using fibroblasts or embryonic stem cells (ES cells) as donor cells in place of cumulus cells. Fibroblasts were obtained by culturing a fragment of mouse tail (Non-patent Document 11). E14 cells were used as ES cells (Non-patent Document 12).
Oocytes into which nuclei from the donor cells were transferred were treated with TSA for 20 hours, and cultured in KSOM medium without TSA until 96 hours after the initiation of activation. Then, development into expanded blastocysts was observed and the blastocyst formation rate was determined. 30 or more embryos were examined in each of the experimental groups of the respective cells.

The test system of experiment [3] is bovine reconstructed embryos. The experiment can be described thus: Early embryonic development of bovine reconstructed embryos. The experiment is classed as cell-based. As to conditions: for Number of cleaved embryos / Cleavage rate (cleaved embryos to cultured embryos): 48 hours postactivation; for Number of embryos at the blastocyst stage: 168 hours postactivation. As for the experimental part:
Bovine ovaries collected from sacrificed cows at a local slaughterhouse were stored in physiological saline at 25° C. and transported to the laboratory within 6 to 8 hours after slaughter. Bovine oocytes were harvested by aspiration of follicular fluids from follicles with diameters of 2 to 5 mm on the surfaces of bovine ovaries using 21G injection needles (Terumo, Tokyo, Japan) and 10-ml syringes (Terumo). Only oocyte-cumulus cell complexes to which 2 to 4 layers of cumulus cells were attached were selected and collected from the harvested follicular fluids. The collected oocyte-cumulus cell complexes were introduced into drops of 50 μl maturation medium under mineral oil (Sigma, USA) and cultured for 21 hours at 39° C. under 5% CO2 and 95% air at saturation humidity. The maturation medium was prepared by adding 0.02 AU/ml of follicle-stimulating hormone (FSH, Antrin, Kawasaki Seiyaku, Kanagawa, Japan) and 1 μg/ml estradiol 17-β (Sigma) to 25 mM HEPES buffered TCM-199 (Earle's salts, Gibco, m-TCM199E) supplemented with 5% (v/v) new born calf serum (NBCS, Gibco, N.Y., USA) and 25 μg/ml of gentamicin solution (Sigma).
The oocyte-cumulus cell complexes matured for 21 hours were allowed to stand for 5 minutes in a solution containing 5% NBCS and 25 μg/ml gentamicin solution (Sigma) in 25 mM HEPES-buffered TCM-199 (Hank's salts, Gibco, m-TCM199H) containing 0.25% (w/v) hyaluronidase (Sigma). Then, the cumulus cells attached around the oocytes were fully removed by pipetting.
The oocytes from which the cumulus cells had been removed were transferred to m-TCM119H and only oocytes with the first polar bodies had been emitted were selected under an inverted microscope. Zonae pellucidae above each first polar bodies were incised using a fine glass needle for removing nuclei from the oocytes, and the oocytes were transferred to m-TCM119H supplemented with 5 μg/ml cytochalacin B (Sigma) and allowed to stand for 15 minutes. Each oocyte was held from the upside using the glass needle used for incising zona pellucida, and enucleation was carried out by removing the first polar body and the oocyte cytoplasm neighboring the first polar body corresponding to about 10 to 20% of the oocyte cytoplasm volume from the zona pellucida incision site. The removed oocyte cytoplasm was transferred to m-TCM199E containing 20 μg/ml of Hoechst 33342 (Sigma) and stained at 39° C. under 5% CO2 and 95% air at saturated humidity for 30 minutes, and the enucleation was confirmed by judging the presence of nucleus in the enucleated oocyte cytoplasm under UV irradiation.
Fibroblasts derived from an auricle of Japanese black cattle calves were used as donor cells for nuclear transfer. The donor cells were cultured to 80% confluency in Dulbecco's modified Eagle medium (DMEM, Nissui, Tokyo, Japan) supplemented with 10% (v/v) fetal bovine serum (FBS, Funakoshi, Tokyo, Japan). The culture medium was then exchanged for DMEM supplemented with 0.4% FBS, and the cells were cultured under serum-starvation conditions for 7 days. The cells cultured under serum-starvation conditions were isolated from the culture dishes using a 0.25% (w/v) solution of trypsin (Sigma) containing 0.04% (w/v) disodium dihydrogen ethylenediaminetetraacetic acid (EDTA, Nacalai Tesque, Kyoto, Japan). The cells were harvested by centrifugation in a centrifuge tube, and suspended in a phosphate buffered saline (PBS, Gibco) (−) solution containing 10% (w/v) polyvinylpyrrolidone (PVP, Nacalai Tesque). The isolated cells were aspirated into a micro-glass pipette for cell introduction, and introduced from the zona pellucida incision sites into the perivitelline spaces of the recipient enucleated oocytes. […]

The mark [4] stands for this setting: TSA in the culture medium, 5-500 nM.

SMILES strings stand for the structures.

Take `CC(/C=C/C(=O)NO)=C\[C@@H](C)C(=O)c1ccc(N(C)C)cc1` [TSA, trichostatin A]: the “majority of the methylation of the paternal genome, response to TSA treatment” value in experiment [1] is recorded as “sensitive”. The “methylation of the maternal genome, response to TSA treatment” value in experiment [1] is “resistant”. Besides, in experiment [1] (region with high methylation of histone H3 Lys9), the “methylation of DNA in the pericentromeric region, response to TSA” value is reported as “resistant”. The “Ratio of methylation level of paternal genome to maternal genome (%)” value in experiment [1] (Spermatid (ROSI), 20 hours) is reported as 42.5^b %. Besides, the “blastocyst development rate compared with the case without TSA” value in experiment [2] is “higher”. Further, the “Cell number ± SEM of blastocysts” value in experiment [3] (TSA 5 nM for 48 hours) came out at 89 ± 6; in experiment [3] (TSA 50 nM for 48 hours) it was 83 ± 6; in experiment [3] (TSA 500 nM for 48 hours), 92 ± 8. Besides, the “Number of cleaved embryos” value is listed as 85 in experiment [3] (TSA 5 nM for 48 hours, 106 cultured embryos); 73 in experiment [3] (TSA 50 nM for 48 hours, 97 cultured embryos); 73 in experiment [3] (TSA 500 nM for 48 hours, 97 cultured embryos). The “Cleavage rate (cleaved embryos to cultured embryos)” value in experiment [3] (TSA 5 nM for 48 hours) stood at 80%; in experiment [3] (TSA 50 nM for 48 hours), 75%; in experiment [3] (TSA 500 nM for 48 hours) it was 75%. Further, the “Number of embryos at the blastocyst stage” value was found to be 28 in experiment [3] (TSA 5 nM for 48 hours), 29 in experiment [3] (TSA 50 nM for 48 hours) and 5 in experiment [3] (TSA 500 nM for 48 hours). The “increase in blastocyst development rate” value in experiment [3] (TSA at a certain concentration for a certain period of time) is “about 2 fold”. For the same compound, the “influence on cell number of blastocysts” value in experiment [3] (setting [4]) is reported as “did not influence”. Further, in experiment [3] (setting [4]), the “influence on cleavage rate” value was “did not influence”.
